Assay results published in PubChem BioAssay AID2060326 (Molecular Pharmacology Branch, DTP, NCI, 2025).
Values joined by “and” are separate entries in the source; they are usually repeats but may differ in a detail not shown here. Identical values can stand only once.

Each compound was assayed on MDA-MB-468 multi-cell spheroids, viability (assay: Anticancer human tumor MDA-MB-468 cell line growth inhibition [IpAb]). Conditions: compound 0.0316 µM; stronger effect = lower value.
Outline: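 Multi-cell spheroids of 60% tumour cells, 25% HUVEC and 15% MSC in ultra-low-attachment U-bottom wells, treated with agents combined with ipatasertib or abemaciclib. Half-log ranges top out near clinical Cmax, or 10 microM when Cmax is unknown.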
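Further: spheroids exposed to agents for seven days.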
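Wherever viability, T/C is given: 100% = DMSO vehicle control viability.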

Row | SMILES | viability, T/C
1 | Cc1nc(NC(=O)N2CCCC2C(N)=O)sc1-c1ccnc(C(C)(C)C(F)(F)F)c1 (stereo not drawn) | 86.9% and 91.9%
2 | CC1(C)CCC(CN2CCN(c3ccc(C(=O)NS(=O)(=O)c4ccc(NCC5CCOCC5)c([N+](=O)[O-])c4)c(Oc4cnc5[nH]ccc5c4)c3)CC2)=C(c2ccc(Cl)cc2)C1 | 111% and 107%

Same assay, conditions: compound 0.1 µM; stronger effect = lower value

Row | SMILES | viability, T/C
3 | Cc1nc(NC(=O)N2CCCC2C(N)=O)sc1-c1ccnc(C(C)(C)C(F)(F)F)c1 (stereo not drawn) | 93% and 82.5%
4 | CCN1CCN(Cc2ccc(Nc3ncc(F)c(-c4cc(F)c5nc(C)n(C(C)C)c5c4)n3)nc2)CC1 | 102% [middle of 13 runs]
5 | CC1(C)CCC(CN2CCN(c3ccc(C(=O)NS(=O)(=O)c4ccc(NCC5CCOCC5)c([N+](=O)[O-])c4)c(Oc4cnc5[nH]ccc5c4)c3)CC2)=C(c2ccc(Cl)cc2)C1 | 106% and 94.5%

Same assay, conditions: compound 0.316 µM; stronger effect = lower value

Row | SMILES | viability, T/C
6 | Cc1nc(NC(=O)N2CCCC2C(N)=O)sc1-c1ccnc(C(C)(C)C(F)(F)F)c1 (stereo not drawn) | 79.2% and 88.1%
7 | CC1(C)CCC(CN2CCN(c3ccc(C(=O)NS(=O)(=O)c4ccc(NCC5CCOCC5)c([N+](=O)[O-])c4)c(Oc4cnc5[nH]ccc5c4)c3)CC2)=C(c2ccc(Cl)cc2)C1 | 102% and 89.2%

Same assay, conditions: compound 1 µM; stronger effect = lower value

Row | SMILES | viability, T/C
8 | Cc1nc(NC(=O)N2CCCC2C(N)=O)sc1-c1ccnc(C(C)(C)C(F)(F)F)c1 (stereo not drawn) | 64.3% and 95%
9 | CC1(C)CCC(CN2CCN(c3ccc(C(=O)NS(=O)(=O)c4ccc(NCC5CCOCC5)c([N+](=O)[O-])c4)c(Oc4cnc5[nH]ccc5c4)c3)CC2)=C(c2ccc(Cl)cc2)C1 | 95.9% and 85.8%

Same assay, conditions: compound 3.16 µM; stronger effect = lower value

Row | SMILES | viability, T/C
10 | Cc1nc(NC(=O)N2CCCC2C(N)=O)sc1-c1ccnc(C(C)(C)C(F)(F)F)c1 (stereo not drawn) | 84% and 94.3%
11 | CC1(C)CCC(CN2CCN(c3ccc(C(=O)NS(=O)(=O)c4ccc(NCC5CCOCC5)c([N+](=O)[O-])c4)c(Oc4cnc5[nH]ccc5c4)c3)CC2)=C(c2ccc(Cl)cc2)C1 | 73% and 52.9%

Same assay, conditions: compound 10 µM; stronger effect = lower value

Row | SMILES | viability, T/C
12 | Cc1nc(NC(=O)N2CCCC2C(N)=O)sc1-c1ccnc(C(C)(C)C(F)(F)F)c1 (stereo not drawn) | 25.2% and 31.6%
13 | CC1(C)CCC(CN2CCN(c3ccc(C(=O)NS(=O)(=O)c4ccc(NCC5CCOCC5)c([N+](=O)[O-])c4)c(Oc4cnc5[nH]ccc5c4)c3)CC2)=C(c2ccc(Cl)cc2)C1 | 10% and 5.86%

Same assay, conditions: compound alone; run of 05/18/2021

Row | IC50 | SMILES
14 | > 1 µM | CCN1CCN(Cc2ccc(Nc3ncc(F)c(-c4cc(F)c5nc(C)n(C(C)C)c5c4)n3)nc2)CC1

Same assay, conditions: curve of compound

Row | IC50 | SMILES
15 | 6.02 µM and 6.99 µM | Cc1nc(NC(=O)N2CCCC2C(N)=O)sc1-c1ccnc(C(C)(C)C(F)(F)F)c1 (stereo not drawn)
16 | 4.77 µM and 3.52 µM | CC1(C)CCC(CN2CCN(c3ccc(C(=O)NS(=O)(=O)c4ccc(NCC5CCOCC5)c([N+](=O)[O-])c4)c(Oc4cnc5[nH]ccc5c4)c3)CC2)=C(c2ccc(Cl)cc2)C1

Same assay, conditions: curve of first compound; second compound 0.01 µM

Row | SMILES | IC50
17 | C=CC(=O)N1CCN(c2nc(=O)n(-c3c(C)ccnc3C(C)C)c3nc(-c4c(O)cccc4F)c(F)cc23)C(C)C1 (stereo not drawn) + CCN1CCN(Cc2ccc(Nc3ncc(F)c(-c4cc(F)c5nc(C)n(C(C)C)c5c4)n3)nc2)CC1 | 7.47 µM
18 | Cn1nccc1Nc1nccc(-c2ccn(C(CO)c3ccc(Cl)c(F)c3)c(=O)c2)n1 (stereo not drawn) + CCN1CCN(Cc2ccc(Nc3ncc(F)c(-c4cc(F)c5nc(C)n(C(C)C)c5c4)n3)nc2)CC1 | 4.35 µM
19 | C=CCn1c(=O)c2cnc(Nc3ccc(N4CCN(C)CC4)cc3)nc2n1-c1cccc(C(C)(C)O)n1 + CCN1CCN(Cc2ccc(Nc3ncc(F)c(-c4cc(F)c5nc(C)n(C(C)C)c5c4)n3)nc2)CC1 | 0.467 µM

Same assay, conditions: curve of first compound; second compound 0.0316 µM

Row | SMILES | IC50
20 | C=CC(=O)N1CCN(c2nc(=O)n(-c3c(C)ccnc3C(C)C)c3nc(-c4c(O)cccc4F)c(F)cc23)C(C)C1 (stereo not drawn) + CCN1CCN(Cc2ccc(Nc3ncc(F)c(-c4cc(F)c5nc(C)n(C(C)C)c5c4)n3)nc2)CC1 | 7.21 µM
21 | Cn1nccc1Nc1nccc(-c2ccn(C(CO)c3ccc(Cl)c(F)c3)c(=O)c2)n1 (stereo not drawn) + CCN1CCN(Cc2ccc(Nc3ncc(F)c(-c4cc(F)c5nc(C)n(C(C)C)c5c4)n3)nc2)CC1 | 4.7 µM
22 | C=CCn1c(=O)c2cnc(Nc3ccc(N4CCN(C)CC4)cc3)nc2n1-c1cccc(C(C)(C)O)n1 + CCN1CCN(Cc2ccc(Nc3ncc(F)c(-c4cc(F)c5nc(C)n(C(C)C)c5c4)n3)nc2)CC1 | 0.461 µM

Same assay, conditions: curve of first compound; second compound 0.1 µM

Row | SMILES | IC50
23 | Cn1ncc(Cl)c1-c1cc(C(=O)NC(CN)Cc2cccc(F)c2)sc1Cl (stereo not drawn) + CC(C)NCC(C(=O)N1CCN(c2ncnc3c2C(C)CC3O)CC1)c1ccc(Cl)cc1 | 0.366 µM
